Results from US8895744B2, “Alfa-carboline inhibitors of NPM-ALK, RET, and Bcr-Abl” (Universita' Degli Studi di Milano-Bicocca, priority 2008, dated 2014).

What was measured:
Recombinant ALK kinase = target: T1, Recombinant ALK kinase (Homo sapiens, UniProt Q9UM73); test: ALK kinase inhibitory activity, ELISA-based in vitro kinase assay; assay type: biochemical; conditions: purified rALK, 0.3 mM ATP, read-out: ALK IC50
T1 construct: made in house; host or cells: Sf9 insect cells (baculovirus)
Experimental: 36. Alk Kinase Inhibitory Activity
(§1) Method: ELISA-Based In Vitro Kinase Assay
(§2) Recombinant ALK kinase was expressed in Sf9 insect cells using the pBlueBacHis2C baculovirus vector system and purified using an anion exchange Fast Flow Q-sepharose column (Amersham-Pharmacia Biotech) followed by HiTrap™-nickel affinity column (Amersham-Pharmacia Biotech). Purified ALK protein was used to screen inhibitors in the ELISA-based kinase assay. A Nunc Immuno 96 well plate was incubated overnight at 37° C. with coating solution (125 μL/well) containing ALK peptide substrate ([…]) (SEQ ID NO: 1) at various concentrations in PBS. Wells were then washed with 200 μL of wash buffer (PBS-Tween 0.05%) and left to dry for at least 2 h at 37° C. The kinase reaction was performed in the presence of 50 mM Tris pH 7.5, 5 mM MnCl2, 5 mM MgCl2, 0.3 mM ATP and purified rALK in a total volume of 100 μL/well at 30° C. for 15 min. For inhibitor testing the reaction mix was preincubated with the inhibitor or solvent control for 10 min at room temperature before transferring to the ELISA plate. After the reaction wells were washed 5 times with 200 μL of wash buffer. Phosphorylated peptide was detected using 100 μL/well of a mouse monoclonal anti-phosphotyrosine antibody (clone 4G10 Upstate Biotech Ltd) diluted 1:2000 in PBS+4% BSA. After 30 min incubation at room temperature the antibody was removed and wells were washed as described above. 100 μL of a secondary antibody (anti-mouse IgG, Horseradish Peroxidase linked whole antibody, Amersham Pharmacia Biotech) diluted 1:1000 in PBS+4% BSA was added to each well and the plate was incubated again for 30 min at room temperature before washing as above. The plate was developed using 100 μL/well TMB Substrate Solution (Endogen) and the reaction was stopped by adding an equiv.ual volume of H2SO4 0.36 M. Finally, the absorbance was read at 450 nm using an Ultrospec® 300 spectrophotometer (Amersham-Pharmacia Biotech). The concentration of the test solution showing 50% inhibition as compared with the control was expressed as IC50 (μM).

[1] = target: T2, Recombinant Abl T315I protein (Homo sapiens, UniProt P00519, T315I); test: Abl T315I mutant kinase inhibitory activity, ELISA-based in vitro kinase assay; assay type: biochemical; conditions: purified Abl T315I, 0.3 mM ATP
T2 construct: made in house; host or cells: Sf9 cells (baculovirus)
Experimental: as §2
37. Abl T315I Mutant Kinase Inhibitory Activity
as §1
(§3) Recombinant Abl T315I protein was expressed in Sf9 cells using the pBlueBacHis2C baculovirus expression vector. Abl T315I was purified using an anion exchange Fast Flow Q-sepharose column (Amersham-Pharmacia Biotech) followed by HiTrap™-nickel affinity column (Amersham-Pharmacia Biotech). Purified Abl T315I was used in the ELISA-based kinase assay to screen inhibitors as described above. The kinase reaction was performed in the presence of 50 mM Tris pH 7.5, 1 mM MnCl2, 5 mM MgCl2, 0.3 mM ATP, peptide substrate ([…]) (SEQ ID NO: 1) and purified Abl T315I. The concentration of the test solution showing 50% inhibition as compared with the control was expressed as IC50 (μM).

Recombinant Ret protein = target: T3, Recombinant Ret protein (Homo sapiens, UniProt P07949); test: RET kinase inhibitory activity, ELISA-based in vitro kinase assay; assay type: biochemical; conditions: purified Ret, 0.3 mM ATP
T3 construct: made in house; host or cells: Sf9 cells (baculovirus)
Experimental: as §2
38. RET Kinase Inhibitory Activity
as §1
as §3, with “Ret” for “Abl T315I”, “Ret.” for “Abl T315I.”

[2] = tested on: parent untransformed BaF3 cells; test: Tritiated thymidine uptake cell proliferation assay, parental BaF3 (control); assay type: cell-based; conditions: Mus musculus, 3[H]-thymidine uptake, 72 h, medium with IL-3, read-out: BaF parental IC50
Experimental: (§4) Method: Tritiated Thymidine Uptake Cell Proliferation Assay
(§5) The following procedure was used with parent untransformed BaF3 cells, BaF3 cells transformed with the oncogenic fusion protein NPM/ALK, NPM/ALK positive SUDHL-1 cells, ALK-negative U937 cells, NPM/ALK positive KARPAS-299 cells. The parent untransformed BaF3 cells and Alk-negative U937 cells are used as controls. Cells were seeded in U-bottomed 96-well plates at 10 000 cells/well in a volume of 100 μL in supplemented medium. In the case of the parent untransformed BaF3 cells, the medium was supplemented with IL-3. Serial dilutions of inhibitors were added to the appropriate wells and volumes adjusted to 200 μL. Controls were treated with the equivalent volume of vehicle, DMSO, alone. Plates were incubated at 37° C. for 72 h. ^3[H]-thymidine (1 μCi/well) was added for the last 16 h of incubation. Cells were harvested on to paper filters and ^3[H]-thymidine incorporation was measured using a β scintillation counter (1430 MicroBeta, Wallac, Turku, Finland). The 50% inhibitory concentration (IC50) was defined as the concentration of inhibitor, expressed in micromolar, that gave a 50% decrease in ^3[H]-thymidine uptake compared with controls.
as §5, with “protein bcr-abl, Abl-negative” for “protein NPM/ALK, NPM/ALK positive SUDHL-1 cells, ALK-negative”, “cells, or Bcr-abl” for “cells, NPM/ALK”, “positive LAMA-84” for “positive KARPAS-299”, “and Abl-negative” for “and Alk-negative”, “in ^3H-thymidine” for “in ^3[H]-thymidine”
as §5, with “RET-PTC2, or RET-negative 11937” for “NPM/ALK, NPM/ALK positive SUDHL-1 cells, ALK-negative U937 cells, NPM/ALK positive KARPAS-299”, “RET-negative” for “Alk-negative”

[3] = tested on: NPM/ALK positive SUDHL-1 cells; test: Tritiated thymidine uptake cell proliferation assay, SUDHL-1; assay type: cell-based; conditions: 3[H]-thymidine uptake, 72 h
Experimental: (§6) Inhibition of the proliferation of NPM/ALK positive cells
as §4, §5

[4] = target: T4, BaF3 cells transformed with the oncogenic fusion protein NPM/ALK (Homo sapiens, UniProt Q9UM73); test: Tritiated thymidine uptake cell proliferation assay, BaF3 NPM/ALK; assay type: cell-based; conditions: 3[H]-thymidine uptake, 72 h; read-out: BaF NPM/ALK IC50
T4 construct: fused on or other part: P06748 (Nucleophosmin)
Experimental: as §6, §4, §5

T1 sequence (Q9UM73 19-1620): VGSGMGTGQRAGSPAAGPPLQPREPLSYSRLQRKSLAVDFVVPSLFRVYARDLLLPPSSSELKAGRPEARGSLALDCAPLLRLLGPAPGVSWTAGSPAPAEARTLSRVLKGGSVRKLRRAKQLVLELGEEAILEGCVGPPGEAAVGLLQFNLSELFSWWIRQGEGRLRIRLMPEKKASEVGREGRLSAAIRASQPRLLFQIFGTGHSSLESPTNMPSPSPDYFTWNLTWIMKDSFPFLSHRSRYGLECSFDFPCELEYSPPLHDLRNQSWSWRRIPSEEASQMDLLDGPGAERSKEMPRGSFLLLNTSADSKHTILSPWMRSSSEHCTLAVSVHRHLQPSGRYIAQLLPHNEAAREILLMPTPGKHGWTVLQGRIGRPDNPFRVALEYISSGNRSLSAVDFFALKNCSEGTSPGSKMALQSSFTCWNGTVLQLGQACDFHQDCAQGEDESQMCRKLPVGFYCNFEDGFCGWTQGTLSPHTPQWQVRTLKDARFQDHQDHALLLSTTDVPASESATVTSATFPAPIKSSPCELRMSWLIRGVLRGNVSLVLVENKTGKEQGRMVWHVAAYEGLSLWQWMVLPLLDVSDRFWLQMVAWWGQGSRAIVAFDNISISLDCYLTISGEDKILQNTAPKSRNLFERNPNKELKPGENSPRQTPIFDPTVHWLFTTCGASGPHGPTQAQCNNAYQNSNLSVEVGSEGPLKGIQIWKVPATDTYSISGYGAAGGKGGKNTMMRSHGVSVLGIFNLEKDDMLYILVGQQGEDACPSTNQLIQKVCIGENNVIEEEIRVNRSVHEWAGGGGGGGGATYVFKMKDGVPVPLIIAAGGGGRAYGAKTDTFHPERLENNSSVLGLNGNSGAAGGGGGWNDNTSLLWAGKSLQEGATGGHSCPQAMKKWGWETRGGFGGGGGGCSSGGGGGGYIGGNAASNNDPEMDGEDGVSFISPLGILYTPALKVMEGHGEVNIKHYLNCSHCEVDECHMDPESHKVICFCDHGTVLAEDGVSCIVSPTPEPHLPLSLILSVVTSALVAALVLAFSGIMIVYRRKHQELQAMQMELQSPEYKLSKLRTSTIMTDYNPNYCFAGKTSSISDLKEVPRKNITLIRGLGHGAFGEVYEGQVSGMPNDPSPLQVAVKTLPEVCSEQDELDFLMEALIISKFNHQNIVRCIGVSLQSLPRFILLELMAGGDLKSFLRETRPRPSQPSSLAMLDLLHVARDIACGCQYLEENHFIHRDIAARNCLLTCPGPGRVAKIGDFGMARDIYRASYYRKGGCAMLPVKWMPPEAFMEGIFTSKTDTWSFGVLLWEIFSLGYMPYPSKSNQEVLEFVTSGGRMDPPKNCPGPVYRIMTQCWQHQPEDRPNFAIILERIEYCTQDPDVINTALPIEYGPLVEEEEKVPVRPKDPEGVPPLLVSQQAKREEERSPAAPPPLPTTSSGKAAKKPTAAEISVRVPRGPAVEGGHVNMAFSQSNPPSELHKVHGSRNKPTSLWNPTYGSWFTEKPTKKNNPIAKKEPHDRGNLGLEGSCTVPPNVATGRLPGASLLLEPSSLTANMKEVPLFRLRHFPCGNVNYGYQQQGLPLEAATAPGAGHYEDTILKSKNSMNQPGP
T3 sequence (P07949 29-1114): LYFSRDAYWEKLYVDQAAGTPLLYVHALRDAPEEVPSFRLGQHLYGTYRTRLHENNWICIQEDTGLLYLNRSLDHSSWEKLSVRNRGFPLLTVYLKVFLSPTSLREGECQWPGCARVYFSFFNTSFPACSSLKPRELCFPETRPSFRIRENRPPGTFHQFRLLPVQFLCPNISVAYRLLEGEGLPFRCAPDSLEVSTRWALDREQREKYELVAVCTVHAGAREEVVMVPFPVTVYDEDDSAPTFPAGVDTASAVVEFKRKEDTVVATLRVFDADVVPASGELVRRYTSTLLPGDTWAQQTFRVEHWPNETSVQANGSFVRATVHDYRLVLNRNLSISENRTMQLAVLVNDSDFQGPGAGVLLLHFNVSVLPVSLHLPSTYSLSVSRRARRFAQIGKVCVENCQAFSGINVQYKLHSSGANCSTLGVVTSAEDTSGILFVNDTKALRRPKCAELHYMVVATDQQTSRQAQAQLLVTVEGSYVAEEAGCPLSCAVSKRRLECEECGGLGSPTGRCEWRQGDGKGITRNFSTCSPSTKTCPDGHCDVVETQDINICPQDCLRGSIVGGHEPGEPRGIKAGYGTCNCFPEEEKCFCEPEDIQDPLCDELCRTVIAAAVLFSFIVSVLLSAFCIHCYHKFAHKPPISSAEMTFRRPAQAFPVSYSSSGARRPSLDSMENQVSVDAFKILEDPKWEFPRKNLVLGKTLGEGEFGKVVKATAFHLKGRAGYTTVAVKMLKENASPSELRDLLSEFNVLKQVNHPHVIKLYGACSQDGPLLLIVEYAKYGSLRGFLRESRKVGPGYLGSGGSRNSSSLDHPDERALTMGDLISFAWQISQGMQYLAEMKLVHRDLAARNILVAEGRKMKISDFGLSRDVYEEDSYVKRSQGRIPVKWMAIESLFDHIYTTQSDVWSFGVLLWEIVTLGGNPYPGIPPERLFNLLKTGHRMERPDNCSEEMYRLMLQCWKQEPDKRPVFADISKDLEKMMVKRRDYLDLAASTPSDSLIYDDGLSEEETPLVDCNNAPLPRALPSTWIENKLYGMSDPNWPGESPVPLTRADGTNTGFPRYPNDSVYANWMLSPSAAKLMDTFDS
T4 sequence (Q9UM73 whole entry, change not shown, the tested form may be a part): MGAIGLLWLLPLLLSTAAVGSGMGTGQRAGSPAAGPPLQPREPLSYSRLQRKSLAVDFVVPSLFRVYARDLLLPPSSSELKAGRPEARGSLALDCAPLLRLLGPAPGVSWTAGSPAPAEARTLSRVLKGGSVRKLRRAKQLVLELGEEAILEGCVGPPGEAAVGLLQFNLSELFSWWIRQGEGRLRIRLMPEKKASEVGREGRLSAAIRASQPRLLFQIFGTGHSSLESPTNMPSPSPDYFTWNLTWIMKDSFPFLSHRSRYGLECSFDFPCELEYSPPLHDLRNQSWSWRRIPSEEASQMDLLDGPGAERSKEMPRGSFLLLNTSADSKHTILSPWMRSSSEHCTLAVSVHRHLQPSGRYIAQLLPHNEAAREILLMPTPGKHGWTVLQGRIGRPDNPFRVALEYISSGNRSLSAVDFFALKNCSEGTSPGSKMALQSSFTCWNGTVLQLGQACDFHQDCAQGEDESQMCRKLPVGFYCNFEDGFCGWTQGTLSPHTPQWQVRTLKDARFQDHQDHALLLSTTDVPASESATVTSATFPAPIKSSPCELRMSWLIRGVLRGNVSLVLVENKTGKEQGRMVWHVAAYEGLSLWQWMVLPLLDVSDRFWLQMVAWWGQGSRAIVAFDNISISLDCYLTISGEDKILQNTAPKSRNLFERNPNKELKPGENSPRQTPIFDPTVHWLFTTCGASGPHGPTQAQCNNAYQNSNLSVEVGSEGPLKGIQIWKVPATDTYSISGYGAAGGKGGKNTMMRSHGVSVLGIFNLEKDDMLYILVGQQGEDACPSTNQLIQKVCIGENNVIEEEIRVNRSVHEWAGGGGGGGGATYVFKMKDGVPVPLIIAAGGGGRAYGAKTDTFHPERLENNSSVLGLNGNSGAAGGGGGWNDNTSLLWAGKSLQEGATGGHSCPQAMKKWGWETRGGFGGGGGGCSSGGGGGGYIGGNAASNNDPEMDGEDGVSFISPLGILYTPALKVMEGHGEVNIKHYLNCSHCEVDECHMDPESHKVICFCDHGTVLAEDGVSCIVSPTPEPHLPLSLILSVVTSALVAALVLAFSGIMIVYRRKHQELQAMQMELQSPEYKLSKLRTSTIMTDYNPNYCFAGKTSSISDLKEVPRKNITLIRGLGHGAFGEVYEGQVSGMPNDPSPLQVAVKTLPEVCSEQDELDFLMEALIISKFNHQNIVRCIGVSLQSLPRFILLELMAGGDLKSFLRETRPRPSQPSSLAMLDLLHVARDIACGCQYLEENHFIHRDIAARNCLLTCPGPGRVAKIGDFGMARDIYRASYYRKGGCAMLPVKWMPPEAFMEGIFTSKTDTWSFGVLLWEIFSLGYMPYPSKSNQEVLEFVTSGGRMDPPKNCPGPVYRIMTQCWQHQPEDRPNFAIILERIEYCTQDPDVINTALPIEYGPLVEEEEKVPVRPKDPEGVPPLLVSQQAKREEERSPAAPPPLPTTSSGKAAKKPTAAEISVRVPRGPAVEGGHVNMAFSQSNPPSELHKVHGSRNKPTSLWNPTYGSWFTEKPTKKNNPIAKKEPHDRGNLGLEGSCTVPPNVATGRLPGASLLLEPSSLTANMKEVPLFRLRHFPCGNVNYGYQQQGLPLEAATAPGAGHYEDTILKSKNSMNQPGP

| IC50 (Recombinant ALK kinase) [µM] | IC50 [1] [µM] | IC50 (Recombinant Ret protein) [µM] | IC50 [3] [nM] | GI50 [4] [µM] | melting point [°C] | SMILES | IC50 [2] [µM] |
| --- | --- | --- | --- | --- | --- | --- | --- |
| 19 ± 1.8 | 53 ± 16 | 82 ± 3.2 | – | – | – | O=c1[nH]c(-c2ccc3[nH]c4ncccc4c3c2)cs1 [R221, 4-(9H-pyrido[2,3-b]indol-6-yl)thiazol-2(3H)-one] | – |
| – | 20 ± 0.67 | 34 ± 27 | 9400 | – | – | O=Cc1ccc2[nH]c3ncc(Cl)cc3c2c1 [R267] | 17 |
| – | 41 | 19 | > 25000 | 2.5 | – | O=C(CSc1ccccn1)c1ccc2[nH]c3ncc(Cl)cc3c2c1 [R272, 1-(3-Chloro-9H-pyrido[2,3-b]indol-6-yl)-2-(pyridin-2-ylsulfanyl)ethanone] | 2 |
| – | 4.4 | 2 | > 25000 | 19 | – | O=C(CSc1nc2ccccc2s1)c1ccc2[nH]c3ncc(Cl)cc3c2c1 [R273, 2-(Benzothiazol-2-ylsulfanyl)-1-(3-chloro-9H-pyrido[2,3-b]indol-6-yl)ethanone] | 14 |
| – | 19 | 14 | 600 | 1 | – | O=C(CSc1nc2ccccc2[nH]1)c1ccc2[nH]c3ncc(Cl)cc3c2c1 [R274, 2-(1H-Benzoimidazol-2-ylsulfanyl)-1-(3-chloro-9H-pyrido[2,3-b]indol-6-yl)ethanone] | 0.9 |
| 0.5 ± 0.1 | – | 1 | – | > 25 | – | Oc1cnc2[nH]c3ccc(CCc4ccccc4)cc3c2c1 [R276] | > 25 |
| – | > 100 | 3.6 | – | > 50 | – | O=C(CSc1cccc(Br)c1)c1ccc2[nH]c3ncc(Cl)cc3c2c1 [R279, 2-(3-Bromophenylsulfanyl)-1-(3-chloro-9H-pyrido[2,3-b]indol-6-yl)ethanone] | > 50 |
| – | 33 | 3.6 | – | > 50 | – | O=C(CSCCOc1ccccc1)c1ccc2[nH]c3ncc(Cl)cc3c2c1 [R280, 1-(3-Chloro-9H-pyrido[2,3-b]indol-6-yl)-2-(2-phenoxyethylsulfanyl)ethanone] | 37 |
| – | 36 | 9.5 | 700 | 14 | – | O=C(CSC1=NCCS1)c1ccc2[nH]c3ncc(Cl)cc3c2c1 [R282, 1-(3-chloro-9H-pyrido[2,3-b]indol-6-yl)-2-(4,5-dihydrothiazol-2-ylsulfanyl)éthanone] | 32 |
| – | 48 | 5.7 | 200 ± 20 | 0.5 ± 0.2 | – | CCN(CC)CCSCC(=O)c1ccc2[nH]c3ncc(Cl)cc3c2c1 [R283, 1-(3-Chloro-9H-pyrido[2,3-b]indol-6-yl)-2-(N,N-diethylaminoethylsulfanyl)ethanone] | 3.6 ± 1.8 |
| 36 ± 14 | > 100 | 41 | – | – | – | CN(C)CCSCC(=O)c1ccc2[nH]c3ncc(Cl)cc3c2c1 [R284, 1-(3-Chloro-9H-pyrido[2,3-b]indol-6-yl)-2-(2,2-dimethylaminoethylsulfanyl)ethanone] | – |
| – | > 100 | 4.8 | > 100000 | 80 | – | C(=C\c1ccc2c(n1)[nH]c1ccccc12)/c1ccccc1 [R300, 2-(2′-phenylethenyl)-9H-pyrido[2,3-b]indole] | > 100 |
| 0.5 ± 0.1 | 3.1 ± 0.1 | > 100 | – | 40 | – | C(=C\c1cnc2[nH]c3ccc(-c4ccc(N5CCOCC5)cn4)cc3c2c1)/c1ccccc1 [R307, 6-(5-morpholin-4-yl-pyridin-2-yl)-3-(2′-phenylethenyl)-9H-pyrido[2,3-b]indole] | > 100 |
| 4 ± 0.2 | 1.6 | – | – | 25 | 208 to 210 | COc1ccc(-c2ccnc3[nH]c4ccccc4c23)cc1 [R309, 4-(4-methoxyphenyl)-9H-pyrido[2,3-b]indole] | 15 |
| – | – | – | – | 19 | 208 to 210 | c1coc(-c2ccc3c(n2)[nH]c2ccccc23)c1 [R326, 2-(furan-2-yl)-9H-pyrido[2,3-b]indole] | 8.8 |
| – | – | – | – | 26 | > 220 | c1coc(-c2ccnc3[nH]c4ccccc4c23)c1 [R327, 4-(furan-2-yl)-9H-pyrido[2,3-b]indole] | > 100 |
| > 100 | – | – | – | 40 | > 220 | O=[N+]([O-])c1cccc(-c2ccnc3[nH]c4ccccc4c23)c1 [R331, 4-(3-nitrophenyl)-9H-pyrido[2,3-b]indole] | > 100 |
